Experimental data published in ChEMBL document CHEMBL1671626, “In vitro profiling of ceftaroline against a collection of recent bacterial clinical isolates from across the United States” (2008).
Converted amounts (≈) assume the structure as drawn.

What was measured:
Format in all cases: functional
[1] = test system: Providencia sp.; assay: Antibacterial activity against ceftazidime-susceptible Providencia sp. by CLSI M7-A7 broth microdilution method
[2] = test system: Streptococcus pyogenes; assay: Antibacterial activity against erythromycin-nonsusceptible Streptococcus pyogenes by CLSI M7-A7 broth microdilution method
[3] = test system: Streptococcus pneumoniae; assay: Antibacterial activity against penicillin-susceptible Streptococcus pneumoniae assessed as resistant isolates by CLSI M7-A7 broth microdilution method
[4] = test system: Haemophilus influenzae; assay: Antibacterial activity against beta lactamase-positive Haemophilus influenzae by CLSI M7-A7 broth microdilution method
[5] = test system: Acinetobacter; assay: Antibacterial activity against multidrug-resistant Acinetobacter by CLSI M7-A7 broth microdilution method
[6] = test system: Citrobacter freundii; assay: Antibacterial activity against ceftazidime-nonsusceptible Citrobacter freundii assessed as susceptible isolates by CLSI M7-A7 broth microdilution method
[7] = test system: Morganella morganii; assay: Antibacterial activity against ceftazidime-susceptible Morganella morganii by CLSI M7-A7 broth microdilution method
[8] = test system: Morganella morganii; assay: Antibacterial activity against ceftazidime-susceptible Morganella morganii assessed as resistant isolates by CLSI M7-A7 broth microdilution method
[9] = test system: Staphylococcus aureus; assay: Antibacterial activity against methicillin-resistant Staphylococcus aureus by CLSI M7-A7 broth microdilution method
[10] = test system: Serratia marcescens; assay: Antibacterial activity against ceftazidime-susceptible Serratia marcescens by CLSI M7-A7 broth microdilution method
[11] = test system: Enterobacteriaceae; assay: Antibacterial activity against ceftazidime-nonsusceptible Enterobacteriaceae assessed as resistant isolates by CLSI M7-A7 broth microdilution method
[12] = test system: Citrobacter freundii; assay: Antibacterial activity against ceftazidime-susceptible Citrobacter freundii assessed as resistant isolates by CLSI M7-A7 broth microdilution method
[13] = test system: Staphylococcus aureus; assay: Antibacterial activity against methicillin-susceptible Staphylococcus aureus assessed as resistant isolates by CLSI M7-A7 broth microdilution method
[14] = test system: Haemophilus influenzae; assay: Antibacterial activity against beta lactamase-positive Haemophilus influenzae assessed as susceptible isolates by CLSI M7-A7 broth microdilution method
[15] = test system: Acinetobacter; assay: Antibacterial activity against imipenem-susceptible Acinetobacter assessed as resistant isolates by CLSI M7-A7 broth microdilution method
[16] = test system: Streptococcus pneumoniae; assay: Antibacterial activity against penicillin-susceptible Streptococcus pneumoniae assessed as susceptible isolates by CLSI M7-A7 broth microdilution method
[17] = test system: Enterobacter cloacae; assay: Antibacterial activity against ceftazidime-nonsusceptible Enterobacter cloacae assessed as susceptible isolates by CLSI M7-A7 broth microdilution method
[18] = test system: Staphylococcus aureus; assay: Antibacterial activity against methicillin-susceptible Staphylococcus aureus by CLSI M7-A7 broth microdilution method
[19] = test system: Enterococcus faecium; assay: Antibacterial activity against vancomycin-resistant Enterococcus faecium by CLSI M7-A7 broth microdilution method
[20] = test system: Proteus mirabilis; assay: Antibacterial activity against ceftazidime-susceptible Proteus mirabilis by CLSI M7-A7 broth microdilution method
[21] = test system: Enterococcus faecalis; assay: Antibacterial activity against vancomycin-susceptible Enterococcus faecalis by CLSI M7-A7 broth microdilution method
[22] = test system: Serratia marcescens; assay: Antibacterial activity against ceftazidime-susceptible Serratia marcescens assessed as resistant isolates by CLSI M7-A7 broth microdilution method
[23] = test system: Streptococcus agalactiae; assay: Antibacterial activity against erythromycin-susceptible Streptococcus agalactiae by CLSI M7-A7 broth microdilution method
[24] = test system: Klebsiella pneumoniae; assay: Antibacterial activity against ceftazidime-susceptible Klebsiella pneumoniae assessed as resistant isolates by CLSI M7-A7 broth microdilution method
[25] = test system: Enterobacteriaceae; assay: Antibacterial activity against ceftazidime-susceptible Enterobacteriaceae assessed as susceptible isolates by CLSI M7-A7 broth microdilution method
[26] = test system: Klebsiella pneumoniae; assay: Antibacterial activity against ceftazidime-nonsusceptible Klebsiella pneumoniae by CLSI M7-A7 broth microdilution method
[27] = test system: Klebsiella pneumoniae; assay: Antibacterial activity against ceftazidime-susceptible Klebsiella pneumoniae by CLSI M7-A7 broth microdilution method
[28] = test system: Proteus mirabilis; assay: Antibacterial activity against ceftazidime-susceptible Proteus mirabilis assessed as resistant isolates by CLSI M7-A7 broth microdilution method
[29] = test system: Enterobacteriaceae; assay: Antibacterial activity against ceftazidime-nonsusceptible Enterobacteriaceae assessed as susceptible isolates by CLSI M7-A7 broth microdilution method
[30] = test system: Escherichia coli; assay: Antibacterial activity against ceftazidime-susceptible Escherichia coli assessed as susceptible isolates by CLSI M7-A7 broth microdilution method
[31] = test system: Serratia marcescens; assay: Antibacterial activity against ceftazidime-susceptible Serratia marcescens assessed as susceptible isolates by CLSI M7-A7 broth microdilution method
[32] = test system: Enterobacter cloacae; assay: Antibacterial activity against ceftazidime-nonsusceptible Enterobacter cloacae by CLSI M7-A7 broth microdilution method
[33] = test system: Staphylococcus aureus; assay: Antibacterial activity against methicillin-resistant Staphylococcus aureus assessed as susceptible isolates by CLSI M7-A7 broth microdilution method
[34] = test system: Enterococcus faecalis; assay: Antibacterial activity against vancomycin-resistant Enterococcus faecalis by CLSI M7-A7 broth microdilution method
[35] = test system: Klebsiella pneumoniae; assay: Antibacterial activity against ceftazidime-susceptible Klebsiella pneumoniae assessed as susceptible isolates by CLSI M7-A7 broth microdilution method
[36] = test system: Staphylococcus aureus; assay: Antibacterial activity against coagulase-negative and oxacillin-susceptible Staphylococcus aureus assessed as susceptible isolates by CLSI M7-A7 broth microdilution method
[37] = test system: Escherichia coli; assay: Antibacterial activity against ceftazidime-susceptible Escherichia coli assessed as resistant isolates by CLSI M7-A7 broth microdilution method
[38] = test system: Haemophilus influenzae; assay: Antibacterial activity against beta lactamase-negative Haemophilus influenzae assessed as susceptible isolates by CLSI M7-A7 broth microdilution method
[39] = test system: Staphylococcus aureus; assay: Antibacterial activity against coagulase-negative and oxacillin-resistant Staphylococcus aureus assessed as resistant isolates by CLSI M7-A7 broth microdilution method
[40] = test system: Streptococcus pneumoniae; assay: Antibacterial activity against penicillin-resistant Streptococcus pneumoniae by CLSI M7-A7 broth microdilution method
[41] = test system: Enterobacteriaceae; assay: Antibacterial activity against ceftazidime-susceptible Enterobacteriaceae by CLSI M7-A7 broth microdilution method
[42] = test system: Staphylococcus aureus; assay: Antibacterial activity against methicillin-susceptible Staphylococcus aureus assessed as susceptible isolates by CLSI M7-A7 broth microdilution method
[43] = test system: Streptococcus pneumoniae; assay: Antibacterial activity against penicillin-susceptible Streptococcus pneumoniae by CLSI M7-A7 broth microdilution method
[44] = test system: Acinetobacter; assay: Antibacterial activity against multidrug-resistant Acinetobacter assessed as resistant isolates by CLSI M7-A7 broth microdilution method
[45] = test system: Moraxella catarrhalis; assay: Antibacterial activity against beta lactamase-positive Moraxella catarrhalis assessed as susceptible isolates by CLSI M7-A7 broth microdilution method

C[C@@H](O)[C@H]1C(=O)N2C(C(=O)O)=C(SCCNC=N)C[C@H]12 [IMIPENEM ANHYDROUS]
MIC50 [1]: 1 µg/mL (≈ 3.34 µM)
MIC90 [1]: 2 µg/mL (≈ 6.68 µM)
MIC [2]: ≤ 0.015 µg/mL
MIC50 [2]: ≤ 0.015 µg/mL
MIC90 [2]: ≤ 0.015 µg/mL
Activity [3]: 0.5%
MIC50 [4]: 0.12 µg/mL (≈ 0.401 µM)
MIC90 [4]: 0.5 µg/mL (≈ 1.67 µM)
MIC50 [5]: 0.5 µg/mL (≈ 1.67 µM)
MIC90 [5]: 32 µg/mL (≈ 107 µM)
Activity [6]: 100%
MIC50 [7]: 2 µg/mL (≈ 6.68 µM)
MIC90 [7]: 2 µg/mL (≈ 6.68 µM)
Activity [8]: 0%
MIC50 [9]: 0.25 µg/mL (≈ 0.835 µM)
MIC90 [9]: > 16 µg/mL
MIC50 [10]: 0.5 µg/mL (≈ 1.67 µM)
MIC90 [10]: 1 µg/mL (≈ 3.34 µM)
Activity [11]: 4.5%
Activity [12]: 0%
Activity [13]: 0.3%
Activity [14]: 100%
Activity [15]: 0%
Activity [16]: 96.5%
Activity [17]: 97.1%
MIC [18]: ≤ 0.12 µg/mL
MIC50 [18]: ≤ 0.12 µg/mL
MIC90 [18]: ≤ 0.12 µg/mL
MIC [19]: > 16 µg/mL
MIC50 [19]: > 16 µg/mL
MIC90 [19]: > 16 µg/mL
MIC50 [20]: 2 µg/mL (≈ 6.68 µM)
MIC90 [20]: 4 µg/mL (≈ 13.4 µM)
MIC50 [21]: 1 µg/mL (≈ 3.34 µM)
MIC90 [21]: 2 µg/mL (≈ 6.68 µM)
Activity [22]: 0%
MIC [23]: ≤ 0.015 µg/mL
MIC50 [23]: ≤ 0.015 µg/mL
MIC90 [23]: 0.03 µg/mL (≈ 0.1 µM)
Activity [24]: 0%
Activity [25]: 100%
MIC50 [26]: 0.12 µg/mL (≈ 0.401 µM)
MIC90 [26]: 16 µg/mL (≈ 53.4 µM)
MIC [27]: 0.12 µg/mL (≈ 0.401 µM)
MIC50 [27]: 0.12 µg/mL (≈ 0.401 µM)
MIC90 [27]: 0.5 µg/mL (≈ 1.67 µM)
Activity [28]: 0%
Activity [29]: 92.3%
Activity [30]: 100%
Activity [31]: 100%
MIC50 [32]: 0.25 µg/mL (≈ 0.835 µM)
MIC90 [32]: 0.25 µg/mL (≈ 0.835 µM)
Activity [33]: 84.6%
MIC50 [34]: 1 µg/mL (≈ 3.34 µM)
MIC90 [34]: 2 µg/mL (≈ 6.68 µM)
Activity [35]: 100%
Activity [36]: 100%
Activity [37]: 0%
Activity [38]: 100%
Activity [39]: 16.4%
MIC50 [40]: 0.25 µg/mL (≈ 0.835 µM)
MIC90 [40]: 1 µg/mL (≈ 3.34 µM)
MIC50 [41]: 0.25 µg/mL (≈ 0.835 µM)
MIC90 [41]: 1 µg/mL (≈ 3.34 µM)
Activity [42]: 99.7%
MIC [43]: ≤ 0.015 µg/mL
MIC50 [43]: ≤ 0.015 µg/mL
MIC90 [43]: ≤ 0.015 µg/mL
Activity [44]: 31.3%

CC(C)(O/N=C(\C(=O)N[C@@H]1C(=O)N2C(C(=O)[O-])=C(C[n+]3ccccc3)CS[C@H]12)c1csc(N)n1)C(=O)O [CEFTAZIDIME]
MIC50 [1]: 0.25 µg/mL (≈ 0.457 µM)
MIC90 [1]: 4 µg/mL (≈ 7.32 µM)
MIC [2]: ≤ 1 µg/mL
MIC50 [2]: ≤ 1 µg/mL
MIC90 [2]: ≤ 1 µg/mL
MIC50 [4]: 0.06 µg/mL (≈ 0.11 µM)
MIC90 [4]: 0.12 µg/mL (≈ 0.22 µM)
MIC50 [5]: > 32 µg/mL
MIC90 [5]: > 32 µg/mL
Activity [6]: 0%
MIC50 [7]: 0.06 µg/mL (≈ 0.11 µM)
MIC90 [7]: 4 µg/mL (≈ 7.32 µM)
Activity [8]: 0%
MIC50 [9]: 32 µg/mL (≈ 58.5 µM)
MIC90 [9]: > 32 µg/mL
MIC50 [10]: 0.12 µg/mL (≈ 0.22 µM)
MIC90 [10]: 1 µg/mL (≈ 1.83 µM)
Activity [11]: 90%
Activity [12]: 0%
Activity [13]: 1.7%
Activity [14]: 98%
Activity [15]: 31.9%
Activity [17]: 0%
MIC50 [18]: 8 µg/mL (≈ 14.6 µM)
MIC90 [18]: 8 µg/mL (≈ 14.6 µM)
Activity [45]: 100%
MIC [19]: > 32 µg/mL
MIC50 [19]: > 32 µg/mL
MIC90 [19]: > 32 µg/mL
MIC50 [20]: 0.06 µg/mL (≈ 0.11 µM)
MIC90 [20]: 0.12 µg/mL (≈ 0.22 µM)
MIC [21]: > 32 µg/mL
MIC50 [21]: > 32 µg/mL
MIC90 [21]: > 32 µg/mL
Activity [22]: 0%
MIC [23]: ≤ 1 µg/mL
MIC50 [23]: ≤ 1 µg/mL
MIC90 [23]: ≤ 1 µg/mL
Activity [24]: 0%
Activity [25]: 100%
MIC50 [26]: > 32 µg/mL
MIC90 [26]: > 32 µg/mL
MIC50 [27]: 0.12 µg/mL (≈ 0.22 µM)
MIC90 [27]: 0.25 µg/mL (≈ 0.457 µM)
Activity [28]: 0%
Activity [29]: 0%
Activity [30]: 100%
Activity [31]: 100%
MIC50 [32]: > 32 µg/mL
MIC90 [32]: > 32 µg/mL
Activity [33]: 11%
MIC50 [34]: > 32 µg/mL
MIC90 [34]: > 32 µg/mL
Activity [35]: 100%
Activity [36]: 93.5%
Activity [37]: 0%
Activity [38]: 98.5%
Activity [39]: 66.2%
MIC50 [40]: 16 µg/mL (≈ 29.3 µM)
MIC90 [40]: 32 µg/mL (≈ 58.5 µM)
MIC50 [41]: 0.12 µg/mL (≈ 0.22 µM)
MIC90 [41]: 0.5 µg/mL (≈ 0.915 µM)
Activity [42]: 92%
MIC [43]: ≤ 1 µg/mL
MIC50 [43]: ≤ 1 µg/mL
MIC90 [43]: ≤ 1 µg/mL
Activity [44]: 93.8%
